We go through 7 compounds from article PMC8226452, “PESIN Conjugates for Multimodal Imaging: Can Multimerization Compensate Charge Influences on Cell Binding Properties? A Case Study” (Pharmaceuticals, 2021).

Like-named read-outs stand apart in the source and are kept apart here.

Data set [1] in a line: logD by partition between n-octanol and aqueous solution at pH 7.4. It is filed as physicochemical. As for the experimental part:
For the ^68Ga-labeled agents [^68Ga]Ga-2, [^68Ga]Ga-3, [^68Ga]Ga-5, and [^68Ga]Ga-6, and the dyes NIR-820 and 1, the logD values were determined by partition experiments between n-octanol and aqueous solution at pH 7.4.
Determination of logD. The n-octanol/water partition coefficient (logD) of [^68Ga]Ga-2, [^68Ga]Ga-3, [^68Ga]Ga-5, and [^68Ga]Ga-6 was determined as previously described. In brief, 5 µL of the respective radiolabeled product solutions were added to a mixture of n-octanol (800 µL) and phosphate buffered solution (0.05 M, pH 7.4, 795 µL) and vigorously shaken for 5 min. After separation of the phases by centrifugation, 100 µL of each phase was taken and measured in a γ-counter.

Assay in data set [2]: not given
The source holds these as a separate data set.

Data set [3] addresses T1, gastrin-releasing peptide receptor (GRPR) (Homo sapiens, UniProt P30550).
T1 construct: host or cells: HEK-293 (human embryonic kidney) cells, stably GRPR-transfected
Description: Competitive displacement assay with [125I]I-Tyr4-bombesin on stably GRPR-transfected HEK-293 cells. As to conditions: 10^5 GRPR-transfected HEK-293 cells per well; radioligand [125I]I-Tyr4-bombesin; 11 competitor concentrations (0.25-500 nM for 5 and 6, 0.1-250 nM for BBN); 1 h at ambient temperature; γ-counting; nonlinear regression; at least three experiments, each in triplicate; read-out: IC50 (GRPR binding affinity).
Description: Human embryonic kidney 293 cells, stably expressing the GRP receptor (GRPR HEK-293 cells), were obtained from Dr. Martin Béhé, Paul Scherrer Institute, Villingen, Switzerland. Cells were cultured using Dulbecco’s modified Eagle’s medium (DMEM, high glucose, GlutaMax-I, 500 mL), geneticin (G418 Sulfate, 50 mg/mL), Opti-MEM I (GlutaMAX I), RPMI 1640 medium and PenStrep from Gibco, fetal calf serum (FCS) from Bio&sell (Feucht, Germany) and Dulbecco’s phosphate buffered saline (PBS), 0.25% Trypsin and 0.02% EDTA solution in PBS from Sigma-Aldrich (Darmstadt, Germany).
Competitive Receptor Binding Assay. The assays were carried out on stably GRPR-transfected HEK-293 cells as described previously [26, 27]. In brief, 50 µL of a cell suspension containing 10^5 cells was seeded in each well of a Millipore 96-well filter plate. […] After one hour of incubation at ambient temperature, the suspension was filtered and the cells washed thrice with cold PBS. The filter was punched out and measured by γ-counting. […] IC50 values were obtained from at least three different experiments, each performed in triplicate.

Where [4] appears, read: shake-flask, n-octanol (800 µL)/phosphate buffered solution (0.05 M, pH 7.4, 795 µL), 5 µL of 68Ga-labeled product solution, shaken 5 min, centrifugation, 100 µL of each phase measured in γ-counter, read-out: logD (n-octanol/water partition coefficient).

T1 sequence (P30550 whole entry, species assumed): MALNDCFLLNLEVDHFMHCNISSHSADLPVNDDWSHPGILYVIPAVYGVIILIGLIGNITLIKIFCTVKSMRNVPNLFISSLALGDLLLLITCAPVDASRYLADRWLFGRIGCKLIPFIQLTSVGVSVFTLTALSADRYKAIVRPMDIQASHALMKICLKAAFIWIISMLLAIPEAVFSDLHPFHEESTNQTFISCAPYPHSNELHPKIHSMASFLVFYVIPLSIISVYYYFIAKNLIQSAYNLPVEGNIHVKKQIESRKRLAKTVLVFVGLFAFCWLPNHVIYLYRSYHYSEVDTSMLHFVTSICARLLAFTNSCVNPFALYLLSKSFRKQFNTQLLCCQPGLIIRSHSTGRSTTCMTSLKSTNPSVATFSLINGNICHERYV

For the compound `CC1(C)C(/C=C/C2=C(Cl)C(=C/C=C3\N(CCCCS(=O)(=O)[O-])c4ccc(C(=O)O)cc4C3(C)C)/CCC2)=[N+](CCCCS(=O)(=O)[O-])c2ccc(C(=O)O)cc21.[H+]` [NIR-820, reference compound], the “logD (n-octanol/water partition coefficient)” value in data set [1] (unlabeled dyes, comparable n-octanol/water partition experiments at pH 7.4, HPLC analysis of the phases instead of γ-counting) was −3.3 ± 0.7.
Consider `CC1(C)C(/C=C/C2=C(c3ccccc3)C(=C/C=C3/N(CCCCS(=O)(=O)O)c4ccc(C(=O)NCCCC[C@H](NC(=O)CC[C@H](C(=O)O)N5CCN(CC(=O)O)CCN(CC(=O)O)CC5)C(=O)N[C@@H](CS)C(N)=O)cc4C3(C)C)/CCC2)=[N+](CCCCS(=O)(=O)[O-])c2ccc(C(=O)NCCCC[C@H](NC(=O)CC[C@H](C(=O)O)N3CCN(CC(=O)O)CCN(CC(=O)O)CC3)C(=O)N[C@@H](CS)C(N)=O)cc21` [[^68Ga]Ga-3, metal not drawn], for which the logD in data set [1] (pH 7.4) is -2.9 ± 0.1.
On to `CSCC[C@H](NC(=O)[C@H](CC(C)C)NC(=O)[C@H](Cc1c[nH]cn1)NC(=O)CNC(=O)[C@@H](NC(=O)[C@H](C)NC(=O)[C@H](Cc1c[nH]c2ccccc12)NC(=O)[C@H](CCC(N)=O)NC(=O)CCOCCOCCOCCOCCNC(=O)CO/N=C/c1ccc(C(=O)NCCCN(CCCNC(=O)c2ccc(/C=N/OCC(=O)NCCOCCOCCOCCOCCC(=O)N[C@@H](CCC(N)=O)C(=O)N[C@@H](Cc3c[nH]c4ccccc34)C(=O)N[C@@H](C)C(=O)N[C@H](C(=O)NCC(=O)N[C@@H](Cc3c[nH]cn3)C(=O)N[C@@H](CC(C)C)C(=O)N[C@@H](CCSC)C(N)=O)C(C)C)cc2)CC(=O)N[C@@H](CSC2CC(=O)N(CCN3C(=O)CC(SC[C@H](NC(=O)[C@H](CCCCNC(=O)c4ccc5c(c4)C(C)(C)C(/C=C/C4=C(c6ccccc6)C(=C/C=C6/N(CCCCS(=O)(=O)O)c7ccc(C(=O)O)cc7C6(C)C)/CCC4)=[N+]5CCCCS(=O)(=O)[O-])NC(=O)CC[C@H](C(=O)O)N4CCN(CC(=O)O)CCN(CC(=O)O)CC4)C(N)=O)C3=O)C2=O)C(=O)NCCOCCOCC(=O)O)cc1)C(C)C)C(N)=O` (stereo partly shown), for which the Stokes Shift turned out to be 20 nm. Besides, the λmax(em) in data set [2] was found to be 790 nm.
As for `CSCC[C@H](NC(=O)[C@H](CC(C)C)NC(=O)[C@H](Cc1c[nH]cn1)NC(=O)CNC(=O)[C@@H](NC(=O)[C@H](C)NC(=O)[C@H](Cc1c[nH]c2ccccc12)NC(=O)[C@H](CCC(N)=O)NC(=O)CCOCCOCCOCCOCCNC(=O)CO/N=C/c1ccc(C(=O)NCCCN(CCCNC(=O)c2ccc(/C=N/OCC(=O)NCCOCCOCCOCCOCCC(=O)N[C@@H](CCC(N)=O)C(=O)N[C@@H](Cc3c[nH]c4ccccc34)C(=O)N[C@@H](C)C(=O)N[C@H](C(=O)NCC(=O)N[C@@H](Cc3c[nH]cn3)C(=O)N[C@@H](CC(C)C)C(=O)N[C@@H](CCSC)C(N)=O)C(C)C)cc2)CC(=O)N[C@@H](CSC2CC(=O)N(CCN3C(=O)CC(SC[C@H](NC(=O)[C@H](CCCCNC(=O)c4ccc5c(c4)C(C)(C)C(/C=C/C4=C(c6ccccc6)C(=C/C=C6/N(CCCCS(=O)(=O)O)c7ccc(C(=O)O)cc7C6(C)C)/CCC4)=[N+]5CCCCS(=O)(=O)[O-])NC(=O)CC[C@H](C(=O)O)N4CCN(CC(=O)O)CCN(CC(=O)O)CC4)C(N)=O)C3=O)C2=O)C(=O)NCCOCCOCC(=O)O)cc1)C(C)C)C(N)=O` (stereo partly shown) [[^68Ga]Ga-5, metal not drawn], the logD in data set [1] (setting [4]) is -2.2 ± 0.1.
Take `CSCC[C@H](NC(=O)[C@H](CC(C)C)NC(=O)[C@H](Cc1c[nH]cn1)NC(=O)CNC(=O)[C@@H](NC(=O)[C@H](C)NC(=O)[C@H](Cc1c[nH]c2ccccc12)NC(=O)[C@H](CCC(N)=O)NC(=O)CCOCCOCCOCCOCCNC(=O)CO/N=C/c1ccc(C(=O)NCCCN(CCCNC(=O)c2ccc(/C=N/OCC(=O)NCCOCCOCCOCCOCCC(=O)N[C@@H](CCC(N)=O)C(=O)N[C@@H](Cc3c[nH]c4ccccc34)C(=O)N[C@@H](C)C(=O)N[C@H](C(=O)NCC(=O)N[C@@H](Cc3c[nH]cn3)C(=O)N[C@@H](CC(C)C)C(=O)N[C@@H](CCSC)C(N)=O)C(C)C)cc2)CC(=O)N[C@@H](CSC2CC(=O)N(CCN3C(=O)CC(SC[C@H](NC(=O)[C@H](CCCCNC(=O)c4ccc5c(c4)C(C)(C)C(/C=C/C4=C(c6ccccc6)C(=C/C=C6/N(CCCCS(=O)(=O)O)c7ccc(C(=O)NCCCC[C@H](NC(=O)CC[C@H](C(=O)O)N8CCN(CC(=O)O)CCN(CC(=O)O)CC8)C(=O)N[C@@H](CSC8CC(=O)N(CCN9C(=O)CC(SC[C@H](NC(=O)CN(CCCNC(=O)c%10ccc(/C=N/OCC(=O)NCCOCCOCCOCCOCCC(=O)N[C@@H](CCC(N)=O)C(=O)N[C@@H](Cc%11c[nH]c%12ccccc%11%12)C(=O)N[C@@H](C)C(=O)N[C@H](C(=O)NCC(=O)N[C@@H](Cc%11c[nH]cn%11)C(=O)N[C@@H](CC(C)C)C(=O)N[C@@H](CCSC)C(N)=O)C(C)C)cc%10)CCCNC(=O)c%10ccc(/C=N/OCC(=O)NCCOCCOCCOCCOCCC(=O)N[C@@H](CCC(N)=O)C(=O)N[C@@H](Cc%11c[nH]c%12ccccc%11%12)C(=O)N[C@@H](C)C(=O)N[C@H](C(=O)NCC(=O)N[C@@H](Cc%11c[nH]cn%11)C(=O)N[C@@H](CC(C)C)C(=O)N[C@@H](CCSC)C(N)=O)C(C)C)cc%10)C(=O)NCCOCCOCC(=O)O)C9=O)C8=O)C(N)=O)cc7C6(C)C)/CCC4)=[N+]5CCCCS(=O)(=O)[O-])NC(=O)CC[C@H](C(=O)O)N4CCN(CC(=O)O)CCN(CC(=O)O)CC4)C(N)=O)C3=O)C2=O)C(=O)NCCOCCOCC(=O)O)cc1)C(C)C)C(N)=O` (stereo partly shown) [[^68Ga]Ga-6, metal not drawn]: the Stokes Shift came to 20 nm. The logD in data set [1] (setting [4]) was -1.8 ± 0.1.
Regarding `CC1(C)C(/C=C/C2=C(c3ccccc3)C(=C/C=C3/N(CCCCS(=O)(=O)O)c4ccc(C(=O)NCCCC[C@H](NC(=O)CC[C@H](C(=O)O)N5CCN(CC(=O)O)CCN(CC(=O)O)CC5)C(=O)N[C@@H](CS)C(N)=O)cc4C3(C)C)/CCC2)=[N+](CCCCS(=O)(=O)[O-])c2ccc(C(=O)O)cc21` [[^68Ga]Ga-2, metal not drawn], the “logD (n-octanol/water partition coefficient)” value in data set [1] (pH 7.4) was −2.6 ± 0.1.
For orientation: IC50 means the concentration that gives 50% inhibition. For `CSCC[C@H](NC(=O)[C@H](CC(C)C)NC(=O)[C@H](Cc1c[nH]cn1)NC(=O)CNC(=O)[C@@H](NC(=O)[C@H](C)NC(=O)[C@H](Cc1c[nH]c2ccccc12)NC(=O)[C@H](CCC(N)=O)NC(=O)CCOCCOCCOCCOCCNC(=O)CO/N=C/c1ccc(C(=O)NCCCN(CCCNC(=O)c2ccc(/C=N/OCC(=O)NCCOCCOCCOCCOCCC(=O)N[C@@H](CCC(N)=O)C(=O)N[C@@H](Cc3c[nH]c4ccccc34)C(=O)N[C@@H](C)C(=O)N[C@H](C(=O)NCC(=O)N[C@@H](Cc3c[nH]cn3)C(=O)N[C@@H](CC(C)C)C(=O)N[C@@H](CCSC)C(N)=O)C(C)C)cc2)CC(=O)N[C@@H](CSC2CC(=O)N(CCN3C(=O)CC(SC[C@H](NC(=O)[C@H](CCCCNC(=O)c4ccc5c(c4)C(C)(C)C(/C=C/C4=C(c6ccccc6)C(=C/C=C6/N(CCCCS(=O)(=O)O)c7ccc(C(=O)O)cc7C6(C)C)/CCC4)=[N+]5CCCCS(=O)(=O)[O-])NC(=O)CC[C@H](C(=O)O)N4CCN(CC(=O)O)CCN(CC(=O)O)CC4)C(N)=O)C3=O)C2=O)C(=O)NCCOCCOCC(=O)O)cc1)C(C)C)C(N)=O` (stereo partly shown) [Compound 5], the IC50 in data set [3] was 59.1 ± 1.49 nM. In addition, in data set [1] (shake-flask, n-octanol (800 µL)/phosphate buffered solution (0.05 M, pH 7.4, 795 µL), 5 µL of 68Ga-labeled product solution, shaken 5 min, centrifugation, 100 µL of each phase measured in γ-counter), the “logD (n-octanol/water partition coefficient)” value was −2.2 ± 0.1.
